Source: patent publication US6979686B1, “Substituted pyrazoles as p38 kinase inhibitors” (Pharmacia Corporation, priority 2001, dated 2005)

These molecules were tested against T1, human p38 kinase alpha (Homo sapiens, UniProt Q16539) (assay: p38 kinase in vitro assay, phosphorylation of biotinylated PHAS-I with 32P-ATP). Conditions: @ 1.0 uM.
T1 construct: GST (N, cleaved yes); made in house; host or cells: E. coli DH10B
Format: biochemical

T1 sequence (Q16539 whole entry): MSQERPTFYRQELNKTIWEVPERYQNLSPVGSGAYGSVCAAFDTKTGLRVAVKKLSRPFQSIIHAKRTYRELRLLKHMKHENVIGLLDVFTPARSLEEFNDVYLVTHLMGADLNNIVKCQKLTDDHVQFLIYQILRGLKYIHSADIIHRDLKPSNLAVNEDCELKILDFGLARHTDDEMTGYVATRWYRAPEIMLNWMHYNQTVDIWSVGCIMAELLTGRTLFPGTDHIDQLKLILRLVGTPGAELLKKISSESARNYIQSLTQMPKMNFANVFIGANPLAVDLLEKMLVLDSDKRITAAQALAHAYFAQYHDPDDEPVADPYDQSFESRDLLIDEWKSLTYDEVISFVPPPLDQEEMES

Going from `CSc1cccc(NC(=O)NCCc2[nH]nc(-c3ccc(F)cc3)c2-c2ccncc2)c1` [Example B-0933] to `COc1cccc(NC(=O)NCCc2[nH]nc(-c3ccc(F)cc3)c2-c2ccncc2)c1` [Example B-0948], the “P38 alpha kinase % inhib @ conc. (uM)” value rises from 47.0% @ to 68.0% @.

`CCOC(=O)C(CCSC)NC(=O)NCCc1[nH]nc(-c2ccc(F)cc2)c1-c1ccncc1` (stereo not shown) [Example B-0935] and `CCOC(=O)CCNC(=O)NCCc1[nH]nc(-c2ccc(F)cc2)c1-c1ccncc1` [Example B-0947] are the same in “P38 alpha kinase % inhib @ conc. (uM)” value: 69.0% @ for the first, 69.0% @ for the second.

First: CC(C)NC(=O)NCCc1[nH]nc(-c2ccc(F)cc2)c1-c1ccncc1 [Example B-0937]
Second: CC(C)C(=O)NCCc1[nH]nc(-c2ccc(F)cc2)c1-c1ccncc1 [Example B-0983]
The “P38 alpha kinase % inhib @ conc. (uM)” value of the first is lower: 64.0% @ for the first, 75.0% @ for the second.

Compared with `CCCCOc1ccc(NC(=O)NCCc2[nH]nc(-c3ccc(F)cc3)c2-c2ccncc2)cc1` [Example B-0944], `CCOC(=O)c1ccc(NC(=O)NCCc2[nH]nc(-c3ccc(F)cc3)c2-c2ccncc2)cc1` [Example B-0949] is higher in “P38 alpha kinase % inhib @ conc. (uM)” value: 45.0% @ for the first, 90.0% @ for the second.

First: O=C(NCCc1ccccc1)NCCc1[nH]nc(-c2ccc(F)cc2)c1-c1ccncc1 [Example B-0945]
Second: O=C(NCCc1[nH]nc(-c2ccc(F)cc2)c1-c1ccncc1)c1ccccc1I [Example B-0982]
The “P38 alpha kinase % inhib @ conc. (uM)” value of the first is higher: 96.0% @ for the first, 65.0% @ for the second.

Going from `CC(=O)OCC(=O)NCCc1[nH]nc(-c2ccc(F)cc2)c1-c1ccncc1` [Example B-0981] to `COCC(=O)NCCc1[nH]nc(-c2ccc(F)cc2)c1-c1ccncc1` [Example B-0994], the “P38 alpha kinase % inhib @ conc. (uM)” value falls from 62.0% @ to 55.0% @.

Going from `C=CCOC(=O)NCCc1[nH]nc(-c2ccc(F)cc2)c1-c1ccncc1` [Example B-0985] to `CC(=O)NCCc1[nH]nc(-c2ccc(F)cc2)c1-c1ccncc1` [Example B-0987], the “P38 alpha kinase % inhib @ conc. (uM)” value falls from 86.0% @ to 78.0% @.

Compared with `O=C(NCCc1[nH]nc(-c2ccc(F)cc2)c1-c1ccncc1)C1CCC1` [Example B-0988], `O=C(NCCc1[nH]nc(-c2ccc(F)cc2)c1-c1ccncc1)C1CC1` [Example B-0989] is higher in “P38 alpha kinase % inhib @ conc. (uM)” value: 72.0% @ for the first, 85.0% @ for the second.

First: O=C(NCCc1[nH]nc(-c2ccc(F)cc2)c1-c1ccncc1)c1ccno1 [Example B-0992]
Second: O=C(NCCc1[nH]nc(-c2ccc(F)cc2)c1-c1ccncc1)c1cccnc1 [Example B-1005]
The “P38 alpha kinase % inhib @ conc. (uM)” value of the first is higher: 77.0% @ for the first, 58.0% @ for the second.

Going from `CC(=O)OC(C)C(=O)NCCc1[nH]nc(-c2ccc(F)cc2)c1-c1ccncc1` (stereo not shown) [Example B-0993] to `O=C(NCCc1[nH]nc(-c2ccc(F)cc2)c1-c1ccncc1)C1CCCC1` [Example B-1004], the “P38 alpha kinase % inhib @ conc. (uM)” value rises from 57.0% @ to 79.0% @.

Compared with `O=C(NCCc1[nH]nc(-c2ccc(F)cc2)c1-c1ccncc1)c1ccccc1C(F)(F)F` [Example B-0996], `O=C(NCCc1[nH]nc(-c2ccc(F)cc2)c1-c1ccncc1)c1ccccn1` [Example B-1007] is lower in “P38 alpha kinase % inhib @ conc. (uM)” value: 54.0% @ for the first, 52.0% @ for the second.

Going from `COc1ccc(CC(=O)NCCc2[nH]nc(-c3ccc(F)cc3)c2-c2ccncc2)cc1` [Example B-1000] to `Cc1ccc(C(=O)NCCc2[nH]nc(-c3ccc(F)cc3)c2-c2ccncc2)cc1` [Example B-1002], the “P38 alpha kinase % inhib @ conc. (uM)” value rises from 55.0% @ to 70.0% @.

With `O=C(NCCc1[nH]nc(-c2ccc(F)cc2)c1-c1ccncc1)c1ccncc1` [Example B-1006] the “P38 alpha kinase % inhib @ conc. (uM)” value was 69.0% @.

Same assay, conditions: @ 10.0 uM

For `COc1cc(NC(=O)NCCc2[nH]nc(-c3ccc(F)cc3)c2-c2ccncc2)cc(OC)c1OC` [Example B-0979], the “P38 alpha kinase % inhib @ conc. (uM)” value was 56.0% @.

Same assay, conditions: in vitro P38-alpha kinase inhibition; read-out: P38 alpha kinase IC50

`O=C(Nc1cccc(F)c1)NC(Cc1ccccc1)c1[nH]nc(-c2ccc(F)cc2)c1-c1ccncc1` (stereo not shown) [Example B-0785] and `COc1ccc(NC(=O)NC(Cc2ccccc2)c2[nH]nc(-c3ccc(F)cc3)c2-c2ccncc2)cc1` (stereo not shown) [Example B-0786] are within 1.5-fold of each other in IC50: 23000 nM for the first, 24000 nM for the second.

Compared with `CCN(CC)C(=O)NC(Cc1ccccc1)c1[nH]nc(-c2ccc(F)cc2)c1-c1ccncc1` (stereo not shown) [Example B-0787], `CC(=O)NC(Cc1ccccc1)c1[nH]nc(-c2ccc(F)cc2)c1-c1ccncc1` (stereo not shown) [Example B-0803] is 26-fold lower in IC50: 1500 nM for the first, 57 nM for the second. The second is the more potent here.

First: CCNC(=O)NC(Cc1ccccc1)c1[nH]nc(-c2ccc(F)cc2)c1-c1ccncc1 (stereo not shown) [Example B-0788]
Second: CCOC(=O)NC(Cc1ccccc1)c1[nH]nc(-c2ccc(F)cc2)c1-c1ccncc1 (stereo not shown) [Example B-0793]
The IC50 of the first is 4-fold higher: 1200 nM for the first, 300 nM for the second. The second is the more potent here.

Going from `COc1ccc(NC(=O)NC(Cc2ccccc2)c2[nH]nc(-c3ccc(F)cc3)c2-c2ccncc2)c(OC)c1` (stereo not shown) [Example B-0789] to `COc1cccc(C(=O)NC(Cc2ccccc2)c2[nH]nc(-c3ccc(F)cc3)c2-c2ccncc2)c1` (stereo not shown) [Example B-0824], the IC50 falls from 33000 nM to 3410 nM (9.7-fold).

Compared with `O=C(Cc1cccs1)NC(Cc1ccccc1)c1[nH]nc(-c2ccc(F)cc2)c1-c1ccncc1` (stereo not shown) [Example B-0790], `COc1cccc(CC(=O)NC(Cc2ccccc2)c2[nH]nc(-c3ccc(F)cc3)c2-c2ccncc2)c1` (stereo not shown) [Example B-0817] is 3.1-fold higher in IC50: 1000 nM for the first, 3070 nM for the second. The first is the more potent here.

Going from `CCCOC(=O)NC(Cc1ccccc1)c1[nH]nc(-c2ccc(F)cc2)c1-c1ccncc1` (stereo not shown) [Example B-0792] to `CC(C)COC(=O)NC(Cc1ccccc1)c1[nH]nc(-c2ccc(F)cc2)c1-c1ccncc1` (stereo not shown) [Example B-0826], the IC50 rises from 1100 nM to 1740 nM (1.6-fold).

`CC(=O)OCC(=O)NC(Cc1ccccc1)c1[nH]nc(-c2ccc(F)cc2)c1-c1ccncc1` (stereo not shown) [Example B-0797] and `COCC(=O)NC(Cc1ccccc1)c1[nH]nc(-c2ccc(F)cc2)c1-c1ccncc1` (stereo not shown) [Example B-0842] are within 1.5-fold of each other in IC50: 1040 nM for the first, 740 nM for the second.

First: O=C(NC(Cc1ccccc1)c1[nH]nc(-c2ccc(F)cc2)c1-c1ccncc1)c1ccccc1I (stereo not shown) [Example B-0798]
Second: O=C(NC(Cc1ccccc1)c1[nH]nc(-c2ccc(F)cc2)c1-c1ccncc1)c1ccccc1 (stereo not shown) [Example B-0851]
The IC50 of the first is 1.9-fold higher: 1730 nM for the first, 910 nM for the second.

First: O=C(NC(Cc1ccccc1)c1[nH]nc(-c2ccc(F)cc2)c1-c1ccncc1)C1CCC1 (stereo not shown) [Example B-0804]
Second: O=C(NC(Cc1ccccc1)c1[nH]nc(-c2ccc(F)cc2)c1-c1ccncc1)C1CCCC1 (stereo not shown) [Example B-0852]
The IC50 of the first is 3.4-fold lower: 300 nM for the first, 1020 nM for the second.

Compared with `O=C(NC(Cc1ccccc1)c1[nH]nc(-c2ccc(F)cc2)c1-c1ccncc1)c1ccc(I)cc1` (stereo not shown) [Example B-0807], `O=C(NC(Cc1ccccc1)c1[nH]nc(-c2ccc(F)cc2)c1-c1ccncc1)c1ccc(F)cc1` (stereo not shown) [Example B-0832] is 7.2-fold lower in IC50: 10800 nM for the first, 1490 nM for the second.

`O=C(NC(Cc1ccccc1)c1[nH]nc(-c2ccc(F)cc2)c1-c1ccncc1)c1cccnc1` (stereo not shown) [Example B-0821] and `O=C(NC(Cc1ccccc1)c1[nH]nc(-c2ccc(F)cc2)c1-c1ccncc1)c1ccncc1` (stereo not shown) [Example B-0822] are within 1.5-fold of each other in IC50: 1440 nM for the first, 1330 nM for the second.

Compared with `Cc1ccc(S(=O)(=O)NC(Cc2ccccc2)C(=O)NC(Cc2ccccc2)c2[nH]nc(-c3ccc(F)cc3)c2-c2ccncc2)cc1` (stereo not shown) [Example B-0827], `Cc1ccc(C(=O)NC(Cc2ccccc2)c2[nH]nc(-c3ccc(F)cc3)c2-c2ccncc2)cc1` (stereo not shown) [Example B-0850] is 8.6-fold lower in IC50: 15600 nM for the first, 1810 nM for the second.

Going from `O=C(NC(Cc1ccccc1)c1[nH]nc(-c2ccc(F)cc2)c1-c1ccncc1)c1cnc2ccccc2n1` (stereo not shown) [Example B-0828] to `O=C(NC(Cc1ccccc1)c1[nH]nc(-c2ccc(F)cc2)c1-c1ccncc1)c1cccc(Br)c1` (stereo not shown) [Example B-0838], the IC50 falls from 7900 nM to 3100 nM (2.5-fold).

Compared with `CC(=O)OCC(=O)NC(Cc1ccccc1)c1[nH]nc(-c2ccc(F)cc2)c1-c1ccncc1` (stereo not shown) [Example B-0829], `CC(=O)OC(C)(C)C(=O)NC(Cc1ccccc1)c1[nH]nc(-c2ccc(F)cc2)c1-c1ccncc1` (stereo not shown) [Example B-0834] is 2-fold higher in IC50: 610 nM for the first, 1250 nM for the second.

Compared with `C=CCOC(=O)NC(Cc1ccccc1)c1[nH]nc(-c2ccc(F)cc2)c1-c1ccncc1` (stereo not shown) [Example B-0833], `CC(C)COC(=O)NC(Cc1ccccc1)c1[nH]nc(-c2ccc(F)cc2)c1-c1ccncc1` (stereo not shown) [Example B-0858] is 2.2-fold higher in IC50: 950 nM for the first, 2100 nM for the second. The first is the more potent here.

`O=C(NC(Cc1ccccc1)c1[nH]nc(-c2ccc(F)cc2)c1-c1ccncc1)C1CCC1` (stereo not shown) [Example B-0836] and `CC(C)=CC(=O)NC(Cc1ccccc1)c1[nH]nc(-c2ccc(F)cc2)c1-c1ccncc1` (stereo not shown) [Example B-0846] are within 1.5-fold of each other in IC50: 1240 nM for the first, 1800 nM for the second.

Going from `O=C(NC(Cc1ccccc1)c1[nH]nc(-c2ccc(F)cc2)c1-c1ccncc1)c1ccc(I)cc1` (stereo not shown) [Example B-0839] to `O=C(NC(Cc1ccccc1)c1[nH]nc(-c2ccc(F)cc2)c1-c1ccncc1)c1ccno1` (stereo not shown) [Example B-0840], the IC50 falls from 4300 nM to 630 nM (6.8-fold).

`O=C(NC(Cc1ccccc1)c1[nH]nc(-c2ccc(F)cc2)c1-c1ccncc1)c1ccc(F)c(F)c1F` (stereo not shown) [Example B-0845] and `COc1ccc(CC(=O)NC(Cc2ccccc2)c2[nH]nc(-c3ccc(F)cc3)c2-c2ccncc2)cc1` (stereo not shown) [Example B-0848] are within 1.5-fold of each other in IC50: 1780 nM for the first, 1560 nM for the second.

First: COc1cccc(CC(=O)NC(Cc2ccccc2)c2[nH]nc(-c3ccc(F)cc3)c2-c2ccncc2)c1 (stereo not shown) [Example B-0849]
Second: CC(Oc1ccccc1)C(=O)NC(Cc1ccccc1)c1[nH]nc(-c2ccc(F)cc2)c1-c1ccncc1 (stereo not shown) [Example B-0857]
The IC50 of the first is 5-fold lower: 1250 nM for the first, 6250 nM for the second.

Going from `Cc1ccc(S(=O)(=O)NC(Cc2ccccc2)C(=O)NC(Cc2ccccc2)c2[nH]nc(-c3ccc(F)cc3)c2-c2ccncc2)cc1` (stereo not shown) [Example B-0859] to `CNC(=O)CCC(NC(=O)c1ccccc1I)c1[nH]nc(-c2ccc(F)cc2)c1-c1ccncc1` (stereo not shown) [Example B-0861], the IC50 falls from 39500 nM to 1320 nM (30-fold). The second is the more potent here.

Compared with `CNC(=O)CCC(NC(=O)c1ccc(F)cc1)c1[nH]nc(-c2ccc(F)cc2)c1-c1ccncc1` (stereo not shown) [Example B-0862], `CNC(=O)CCC(NC(=O)NC)c1[nH]nc(-c2ccc(F)cc2)c1-c1ccncc1` (stereo not shown) [Example B-0880] is 14-fold lower in IC50: 2150 nM for the first, 150 nM for the second. The second is the more potent here.

First: CNC(=O)CCC(NS(C)(=O)=O)c1[nH]nc(-c2ccc(F)cc2)c1-c1ccncc1 (stereo not shown) [Example B-0878]
Second: CNC(=O)CCC(NC(=O)Nc1ccc(OC)cc1OC)c1[nH]nc(-c2ccc(F)cc2)c1-c1ccncc1 (stereo not shown) [Example B-0884]
The IC50 of the first is 2.9-fold lower: 650 nM for the first, 1890 nM for the second.
